From patent publication US20230364273A1, “AGENT FOR DETECTING INTERACTION BETWEEN TISSUES AND ORGANS” (HAMAMATSU PHOTONICS K.K., priority 2020, published 2023)

Tested on: mitochondrial complex I (MC-I)
Experiment: PET measurement of the amount (SUV) of MC-I probe accumulated in each tissue and organ of type 2 diabetes model rats (Test Examples 1 and 2)
Type: in vivo
Settings: brain, heart, brown adipocytes, pancreas, liver, kidneys; 5, 8, 16, 26 weeks of age; i.v. about 20 MBq; except brown adipocytes and kidneys at 5 weeks of age (FIG. 4)
Excerpt: Male Zucker Leprfa/Leprfa rats (hereinafter also referred to as “fatty rats”) that develop pathological conditions similar to type 2 diabetes of human adults and male Zucker Leprfa/+ rats (hereinafter also referred to as “lean rats”) as controls thereof were purchased from Charles River Laboratories Japan, Inc., and used for PET measurement at 5, 8, 16, and 26 weeks of age, and the amount of [^18F]BCPP-BF accumulated in each tissue and organ (brain, heart, kidneys, liver, and brown adipocytes (brown adipose tissue)) was measured.
The rats were anesthetized with isoflurane and fixed in a gantry of an animal PET camera (SHR-38000, manufactured by Hamamatsu Photonics K.K.). […]
After the completion of the PET measurement, a region of interest was set on the pancreas identified by an integrated PET image 40 to 60 minutes after the administration of D-[^11C]MT, and the amount of [^18F]BCPP-BF accumulated in the region of interest was calculated. Subsequently, the calculated accumulation amount was normalized by the amount of radioactivity administered and the body weight of each individual and defined as an amount (amount (SUV) of radioactivity accumulated) of [^18F]BCPP-BF accumulated in the pancreas. […] The amount (SUV) of radioactivity accumulated in the brain was calculated by excising the brains from the rats immediately after the PET measurement. […]

SMILES: CC(C)(C)n1ncc(OCc2ccc(OCCCC[18F])nc2)c(Cl)c1=O [[^18F]BCPP-BF]
- accumulation amount (SUV) in each tissue and organ, fatty rats versus lean rats: significantly lower
